28 compounds from patent publication US7550456B2, “Substituted aryl cycloalkanoyl derivatives and methods of their use” (Wyeth, priority 2003, dated 2009) can be followed below.

Broadly, the inhibition is the percentage by which the read-out fell short of the control.

Each structure is given as a SMILES string. Counter-ions that a name gives are not always drawn.

The target of the first test is T1, human hNET (Homo sapiens, UniProt P23975).
T1 construct: expressed in transfected cells; host or cells: MDCK-Net6 (MDCK cells, stably transfected)
T1 sequence (P23975 whole entry): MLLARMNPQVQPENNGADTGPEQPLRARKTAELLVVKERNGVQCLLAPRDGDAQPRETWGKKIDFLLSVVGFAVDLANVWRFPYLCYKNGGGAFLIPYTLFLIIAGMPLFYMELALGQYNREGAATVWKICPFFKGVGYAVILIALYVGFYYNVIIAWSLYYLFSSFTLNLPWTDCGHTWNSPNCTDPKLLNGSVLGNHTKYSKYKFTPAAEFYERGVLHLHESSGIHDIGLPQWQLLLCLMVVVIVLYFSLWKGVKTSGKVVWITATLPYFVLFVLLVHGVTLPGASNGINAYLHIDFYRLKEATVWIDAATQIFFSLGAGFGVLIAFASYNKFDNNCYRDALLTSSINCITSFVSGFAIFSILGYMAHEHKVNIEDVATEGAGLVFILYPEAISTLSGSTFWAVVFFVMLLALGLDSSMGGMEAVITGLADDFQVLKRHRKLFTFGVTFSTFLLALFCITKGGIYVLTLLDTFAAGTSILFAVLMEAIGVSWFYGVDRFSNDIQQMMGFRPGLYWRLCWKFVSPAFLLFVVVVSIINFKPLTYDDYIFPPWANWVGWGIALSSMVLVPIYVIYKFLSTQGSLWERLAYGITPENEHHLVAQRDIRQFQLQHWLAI
The test can be described thus: Norepinephrine (NE) uptake assay in MDCK-Net6 cells. In kind it is cell-based. Conditions: 1 μM test compound, [3H]NE uptake, read-out: % Inhibition @ 1 μM (hNET). The procedure:
Cells were plated at 300,000/T75 flask and cells were split twice weekly. […] Cells were plated at 250,000 cells/T75 flask and split twice weekly.
Norepinephrine (NE) Uptake Assay
On day 1, cells were plated at 3,000 cells/well in growth medium and maintained in a cell incubator (37° C., 5% CO2). On day 2, growth medium was replaced with 200 μl of assay buffer (25 mM HEPES; 120 mM NaCl; 5 mM KCl; 2.5 mM CaCl2; 1.2 mM MgSO4; 2 mg/ml glucose (pH 7.4, 37° C.)) containing 0.2 mg/ml ascorbic acid and 10 μM pargyline. Plates containing cells with 200 μl of assay buffer were equilibrated for 10 minutes at 37° C. prior to addition of compounds. A stock solution of desipramine was prepared in DMSO (10 mM) and delivered to triplicate wells containing cells for a final test concentration of 1 μM. Data from these wells were used to define non-specific NE uptake (minimum NE uptake). Test compounds were prepared in DMSO (10 mM) and diluted in assay buffer according to test range (1 to 10,000 nM). Twenty-five microliters of assay buffer (maximum NE uptake) or test compound were added directly to triplicate wells containing cells in 200 μl of assay buffer. The cells in assay buffer with test compounds were incubated for 20 minutes at 37° C. […] The reaction was terminated by decanting the supernatant from the plate. The plates containing cells were washed twice with 200 μl assay buffer (37° C.) to remove free radioligand. The plates were then inverted, left to dry for 2 minutes, then reinverted and air-dried for an additional 10 minutes. The cells were lysed in 25 μl of 0.25 N NaOH solution (4° C.), placed on a shake table and vigorously shaken for 5 minutes. After cell lysis, 75 μl of scintillation cocktail was added to each well and the plates were sealed with film tape. The plates were returned to the shake table and vigorously shaken for a minimum of 10 minutes to ensure adequate partitioning of organic and aqueous solutions. The plates were counted in a Wallac Microbeta counter (PerkinElmer) to collect the raw cpm data.
For each experiment, a data stream of cpm values collected from the Wallac Microbeta counter was downloaded to a Microsoft Excel statistical application program. Calculations of EC50 values were made using the transformed-both-sides logistic dose response program written by Wyeth Biometrics Department.
On to `CN1CCN(CC(c2cccc(-c3ccc(Cl)c(Cl)c3)c2)C2(O)CCCCC2)CC1` (stereo not shown) [Example 247, 1-[1-(3′,4′-dichloro-1,1′-biphenyl-3-yl)-2-(4-methylpiperazin-1-yl)ethyl]cyclohexanol dihydrochloride], for which the inhibition at 1 µM amounted to 49%.

With `OC1(C(CN2CCNCC2)c2cccc(-c3cccc(OC(F)(F)F)c3)c2)CCCCC1` (stereo not shown) [Example 248, 1-{2-piperazin-1-yl-1-[3′-(trifluoromethoxy)-1,1′-biphenyl-3-yl]ethyl}cyclohexanol dihydrochloride], the inhibition at 1 µM is 7%.

Turning to `OC1(C(CN2CCNCC2)c2cccc(-c3ccc(C(F)(F)F)cc3)c2)CCCCC1` (stereo not shown) [Example 249, 1-{2-piperazin-1-yl-1-[4′-(trifluoromethyl)-1,1′-biphenyl-3-yl]ethyl}cyclohexanol dihydrochloride], the inhibition at 1 µM amounted to 32%.

Regarding `COc1ccc(-c2cccc(C(CN3CCNCC3)C3(O)CCCCC3)c2)cc1OC` (stereo not shown) [Example 250, 1-[1-(3′,4′-dimethoxy-1,1′-biphenyl-3-yl)-2-piperazin-1-ylethyl]cyclohexanol dihydrochloride], the inhibition at 1 µM was determined as 15%.

Take `COc1ccc(C(CN2CCNCC2)C2(O)CCCCC2)cc1-c1cccc(OC(F)(F)F)c1` (stereo not shown) [Example 251, 1-{1-[6-methoxy-3′-(trifluoromethoxy)-1,1′-biphenyl-3-yl]-2-piperazin-1-ylethyl}cyclohexanol dihydrochloride]: the inhibition at 1 µM is 47%.

As for `COc1ccc(C(CN2CCNCC2)C2(O)CCCCC2)cc1-c1ccc(Cl)c(Cl)c1` (stereo not shown) [Example 252, 1-[1-(3′,4′-dichloro-6-methoxy-1,1′-biphenyl-3-yl)-2-piperazin-1-ylethyl]cyclohexanol dihydrochloride], the inhibition at 1 µM was found to be 35%.

As to `COc1ccc(C(CN2CCNCC2)C2(O)CCCCC2)cc1-c1ccc(C(F)(F)F)cc1` (stereo not shown) [Example 253, 1-{1-[6-methoxy-4′-(trifluoromethyl)-1,1′-biphenyl-3-yl]-2-piperazin-1-ylethyl}cyclohexanol dihydrochloride], the inhibition at 1 µM stood at 19%.

In the case of `COc1ccc(C(CN2CCNCC2)C2(O)CCCCC2)cc1-c1ccccc1` (stereo not shown) [Example 254, 1-[1-(6-methoxy-1,1′-biphenyl-3-yl)-2-piperazin-1-ylethyl]cyclohexanol dihydrochloride], the inhibition at 1 µM is 29%.

In the case of `COc1ccc(C(CN2CCN(C)CC2)C2(O)CCCCC2)cc1-c1ccc(C(F)(F)F)cc1` (stereo not shown) [Example 257, 1-[1-[6-methoxy-4′-(trifluoromethyl)-1,1′-biphenyl-3-yl]-2-(4-methylpiperazin-1-yl)ethyl]cyclohexanol dihydrochloride], the inhibition at 1 µM is 17%.

Consider `OC1(C(CN2CCNCC2)c2ccc(OCc3ccccc3)c(C(F)(F)F)c2)CCCCC1` (stereo not shown) [Example 263, 1-{1-[4-(benzyloxy)-3-(trifluoromethyl)phenyl]-2-piperazin-1-ylethyl}cyclohexanol dihydrochloride], for which the inhibition at 1 µM stood at 31%.

For `CN1CCN(CC(c2ccc(OCc3ccccc3)c(C(F)(F)F)c2)C2(O)CCCCC2)CC1` (stereo not shown) [Example 264, 1-[1-[4-(benzyloxy)-3-(trifluoromethyl)phenyl]-2-(4-methylpiperazin-1-yl)ethyl]cyclohexanol dihydrochloride], the inhibition at 1 µM came out at 89%.

Regarding `CN1CCN(CC(c2ccc(OCc3ccccc3)c(Br)c2)C2(O)CCCCC2)CC1` (stereo not shown) [Example 265, 1-[1-[4-(benzyloxy)-3-bromophenyl]-2-(4-methylpiperazin-1-yl)ethyl]cyclohexanol dihydrochloride], the inhibition at 1 µM is 44%.

For the compound `N#Cc1cc(C(CN2CCNCC2)C2(O)CCCCC2)ccc1OCc1ccccc1` (stereo not shown) [Example 266, 2-(benzyloxy)-5-[1-(1-hydroxycyclohexyl)-2-piperazin-1-ylethyl]benzonitrile dihydrochloride], the inhibition at 1 µM came to 91%.

With `CN1CCN(CC(c2ccc(OCc3ccccc3)c(C#N)c2)C2(O)CCCCC2)CC1` (stereo not shown) [Example 267, 2-(benzyloxy)-5-[1-(1-hydroxycyclohexyl)-2-(4-methylpiperazin-1-yl)ethyl]benzonitrile dihydrochloride], the inhibition at 1 µM turned out to be 89%.

Regarding `OC1(C(CN2CCNCC2)c2ccc(OCc3ccccc3)c(OC(F)(F)F)c2)CCCCC1` (stereo not shown) [Example 268, 1-{1-[4-(benzyloxy)-3-(trifluoromethoxy)phenyl]-2-piperazin-1-ylethyl}cyclohexanol dihydrochloride], the inhibition at 1 µM turned out to be 84%.

Regarding `OC1(C(CN2CCN(Cc3ccc4c(c3)OCO4)CC2)c2ccc(OC(F)(F)F)cc2)CCCCC1` (stereo not shown) [Example 285, 1-{2-[4-(1,3-benzodioxol-5-ylmethyl)piperazin-1-yl]-1-[4-(trifluoromethoxy)phenyl]ethyl}cyclohexanol dihydrochloride], the inhibition at 1 µM worked out at 20%.

As for `OC1(C(CN2CCN(CC3CCCCC3)CC2)c2ccc(OC(F)(F)F)cc2)CCCCC1` (stereo not shown) [Example 286, 1-{2-[4-(cyclohexylmethyl)piperazin-1-yl]-1-[4-(trifluoromethoxy)phenyl]ethyl}cyclohexanol dihydrochloride], the inhibition at 1 µM was 78.6%.

Regarding `CCN1CCN(CC(c2ccc(OC(F)(F)F)cc2)C2(O)CCCCC2)CC1` (stereo not shown) [Example 287, 1-{2-(4-ethylpiperazin-1-yl)-1-[4-(trifluoromethoxy)phenyl]ethyl}cyclohexanol dihydrochloride], the inhibition at 1 µM came out at 60.8%.

For `C[C@@H]1CN(CC(c2ccc(OC(F)(F)F)cc2)C2(O)CCCCC2)C[C@H](C)N1` (stereo partly drawn) [Example 288, 1-{2-[cis-3,5-dimethylpiperazin-1-yl]-1-[4(trifluoromethoxy)phenyl]ethyl}cyclohexanol dihydrochloride], the inhibition at 1 µM is 77.6%.

Consider `OC1(C(CN2CCNCC2)c2ccc(-c3ccccc3F)cc2)CCCCC1` (stereo not shown) [Example 289, 1-[1-(2′-fluoro-1,1′-biphenyl-4-yl)-2-piperazin-1-ylethyl]cyclohexanol dihydrochloride], for which the inhibition at 1 µM came to 34%.

For `N#Cc1ccccc1-c1ccc(C(CN2CCNCC2)C2(O)CCCCC2)cc1` (stereo not shown) [Example 290, 4′-[1-(1-hydroxycyclohexyl)-2-piperazin-1-ylethyl]-1,1′-biphenyl-2-carbonitrile dihydrochloride], the inhibition at 1 µM worked out at 36%.

In the case of `OC1(C(CN2CCNCC2)c2ccc(-c3cc(Cl)ccc3Cl)cc2)CCCCC1` (stereo not shown) [Example 291, 1-[1-(2′,5′-dichloro-1,1′-biphenyl-4-yl)-2-piperazin-1-ylethyl]cyclohexanol dihydrochloride], the inhibition at 1 µM is 40%.

Turning to `OC1(C(CN2CCNCC2)c2ccc(OCc3ccccc3)c(Cl)c2)CCCCC1` (stereo not shown) [Example 292, 1-{1-[4-(benzyloxy)-3-chlorophenyl]-2-piperazin-1-ylethyl}cyclohexanol dihydrochloride], the inhibition at 1 µM came out at 89%.

Turning to `CN1CCN(CC(c2ccc(OCc3ccccc3)c(Cl)c2)C2(O)CCCCC2)CC1` (stereo not shown) [Example 293, 1-[1-[4-(benzyloxy)-3-chlorophenyl]-2-(4-methylpiperazin-1-yl)ethyl]cyclohexanol dihydrochloride], the inhibition at 1 µM came out at 96%.

The same test, now with this note: 10 μM test compound (stated in the cell), [3H]NE uptake.
The compound `COc1ccc(C(CN2CCN(C)CC2)C2(O)CCCCC2)cc1-c1ccc(Cl)c(Cl)c1` (stereo not shown) [Example 255, 1-[1-(3′,4′-dichloro-6-methoxy-1,1′-biphenyl-3-yl)-2-(4-methylpiperazin-1-yl)ethyl]cyclohexanol dihydrochloride] had an inhibition at 10 µM of 70.7%.

In the case of `COc1ccc(C(CN2CCN(C)CC2)C2(O)CCCCC2)cc1-c1cccc(OC(F)(F)F)c1` (stereo not shown) [Example 256, 1-[1-[6-methoxy-3′-(trifluoromethoxy)-1,1′-biphenyl-3-yl]-2-(4-methylpiperazin-1-yl)ethyl]cyclohexanol dihydrochloride], the inhibition at 10 µM was determined as 72.8%.

Take `CN1CCN(CC(c2ccc(-c3cccc(Cl)c3)cc2)C2(O)CCC2)CC1` (stereo not shown) [Example 294, 1-[1-(3′-chloro-1,1′-biphenyl-4-yl)-2-(4-methylpiperazin-1-yl)ethyl]cyclobutanol dihydrochloride]: the inhibition at 10 µM was 27.2%.

Still in this test, the particulars now being: MDCK-Net6, read-out: % Inhibition @ 1 μM (hNET), 1 μM test compound, [3H]NE uptake.
In the case of `CN1CCN(CC(c2ccc(OC(F)(F)F)cc2)C2(O)CCCCC2)CC1` (stereo not shown) [Example 283, 1-{2-(4-methylpiperazin-1-yl)-1-[4-(trifluoromethoxy)phenyl]ethyl}cyclohexanol dihydrochloride], the inhibition at 1 µM worked out at 70.7%.
